The values that follow come from ChEMBL document CHEMBL3779792, “Anti-proliferative evaluation of monoterpene derivatives against leukemia” (Eur J Med Chem, 2016).

Molecules are shown by their SMILES. A value given as a limit tells only on which side of the number the result lay.

The test system of assay [1] is Jurkat. Nature of the assay: Cytotoxicity against human Jurkat cells after 72 hrs by Cell-Titer Glo assay. The format is functional, cell-based.
Assay [2] deals with HepG2. Nature of the assay: Cytotoxicity against human HepG2 cells after 72 hrs by Cell-Titer Glo assay. The format is functional, cell-based. As to conditions: HepG2, 72 h.
Assay [3] is described as follows: Cytotoxicity against human SEM cells after 72 hrs by Cell-Titer Glo assay. The format is functional, cell-based.
Assay [4] has as its system HEK293. Nature of the assay: Cytotoxicity against HEK293 cells after 72 hrs by Cell-Titer Glo assay. The settings on record: Homo sapiens, HEK293, 72 h. The format is cell-based.
Assay [5] concerns BJ. Nature of the assay: Cytotoxicity against human BJ cells after 72 hrs by Cell-Titer Glo assay. The format is cell-based.
A short description of assay [6]: Cytotoxicity against human NALM6 cells after 72 hrs by Cell-Titer Glo assay. Format: functional, cell-based. The settings on record: NALM-6, 72 h.
Assay [7] relates to Raji. Briefly: Cytotoxicity against human Raji cells after 72 hrs by Cell-Titer Glo assay. The format is functional, cell-based.

On to `COc1ccc(/C=C/[C@@](C)(/C=C/c2ccc(O)c(/C=C/C#N)c2)CCC=C(C)C)cc1`, for which the EC50 in assay [1] is more than 49 µM; in assay [2], more than 26 µM; in assay [3] it was 4.54 µM; in assay [4], more than 36.6 µM; in assay [5], more than 23.7 µM; in assay [6] it was 16.5 µM. In addition, the EC50 in assay [7] is more than 26 µM.
Take `C=C[C@@](C)(/C=C/c1ccc(O)cc1)CCC=C(C)C` [BAKUCHIOL]: the concentration giving a half-maximal response (EC50) in assay [1] is more than 49 µM; in assay [2], more than 52.1 µM; in assay [3], 15.3 µM; in assay [4] it was more than 36.6 µM; in assay [5], more than 36.6 µM; in assay [6] it was 38 µM. This compound yielded an EC50 in assay [7] of more than 26 µM.
Consider `C=C[C@@](C)(/C=C/c1ccc(O)c(/C=C/C(=O)O)c1)CCC=C(C)C`, for which the EC50 in assay [1] was more than 49 µM; in assay [2], more than 52.1 µM; in assay [3] it was more than 36.6 µM; in assay [4], more than 36.6 µM; in assay [5] it was more than 36.6 µM; in assay [6], more than 43.5 µM. This compound came in with an EC50 in assay [7] of more than 26 µM.
As for `C=C[C@@](C)(/C=C/c1ccc(OC)cc1)CCC=C(C)C`, the half-maximal effective concentration (EC50) is more than 49 µM in assay [1]; more than 52.1 µM in assay [2]; more than 36.6 µM in assay [3]; more than 36.6 µM in assay [4]; more than 36.6 µM in assay [5]; more than 43.5 µM in assay [6]. In addition, in assay [7], the EC50 is more than 26 µM.
For the compound `C=C[C@@](C)(/C=C/c1ccc(O)cc1)CC/C=C(C)/C=N/N`, the EC50 was more than 49 µM in assay [1]; more than 52.1 µM in assay [2]; more than 36.6 µM in assay [3]; more than 36.6 µM in assay [4]; more than 36.6 µM in assay [5]; more than 43.5 µM in assay [6]. In addition, in assay [7], the EC50 was more than 26 µM.
On to `C=C[C@@](C)(/C=C/c1ccc(O)cc1)CC/C=C(C)/C=C/C(=O)OCC`, for which the EC50 in assay [1] was more than 49 µM; in assay [2] it was more than 52.1 µM; in assay [3], more than 36.6 µM; in assay [4], more than 36.6 µM; in assay [5], more than 36.6 µM; in assay [6], 0.815 µM. The compound further yielded an EC50 in assay [7] of more than 26 µM.
Consider `C=C[C@@](C)(/C=C/c1ccc(O)cc1)CCC=O`, for which the EC50 in assay [1] was more than 49 µM; in assay [2] it was more than 52.1 µM; in assay [3], more than 36.6 µM; in assay [4], more than 36.6 µM; in assay [5] it was more than 36.6 µM; in assay [6], more than 43.5 µM. The compound further returned an EC50 in assay [7] of more than 26 µM.
For the compound `C=C[C@@](C)(/C=C/c1ccc(O)c(C=O)c1)CCC=C(C)C`, the EC50 in assay [1] is more than 49 µM; in assay [2] it was more than 52.1 µM; in assay [3] it was 8.51 µM; in assay [4], more than 36.6 µM; in assay [5] it was more than 36.6 µM; in assay [6], 11.2 µM. Also, the EC50 in assay [7] is more than 26 µM.
As to `C=C[C@@](C)(/C=C/c1ccc(O)cc1)CC/C=C/C(=O)OCc1ccccc1`, the EC50 in assay [1] is more than 49 µM; in assay [2], more than 52.1 µM; in assay [3] it was more than 36.6 µM; in assay [4], more than 36.6 µM; in assay [5], more than 36.6 µM; in assay [6], more than 43.5 µM. Further, in assay [7], the EC50 is more than 26 µM.
For the compound `C=C[C@@](C)(/C=C/c1ccc(O)cc1)CC/C=C(C)/C=C/C(=O)OCc1ccccc1`, the EC50 in assay [1] was more than 49 µM; in assay [2] it was more than 52.1 µM; in assay [3] it was more than 36.6 µM; in assay [4], more than 36.6 µM; in assay [5], more than 36.6 µM; in assay [6] it was 36 µM. In addition, in assay [7], the EC50 is more than 26 µM.
`COc1ccc(/C=C/[C@@](C)(/C=C/c2ccc(O)c(/C=C/C(=O)c3ccccc3)c2)CCC=C(C)C)cc1`: the EC50 in assay [1] is more than 49 µM; in assay [2] it was more than 52.1 µM; in assay [3], 30 µM; in assay [4], more than 36.6 µM; in assay [5], more than 36.6 µM; in assay [6] it was more than 43.5 µM. In assay [7], the EC50 was more than 26 µM.
With `C=C[C@@](C)(/C=C/c1ccc(O)c(CO)c1)CCC=C(C)C`, the half-maximal effective concentration (EC50) in assay [1] is more than 49 µM; in assay [2] it was more than 52.1 µM; in assay [3], more than 36.6 µM; in assay [4], more than 36.6 µM; in assay [5], more than 36.6 µM; in assay [6] it was 16.4 µM. For the same compound, in assay [7], the EC50 is more than 26 µM.
As to `C=C[C@@](C)(/C=C/c1ccc(O)c(/C=C(\C)C(=O)OCC)c1)CCC=C(C)C`, the concentration for a half-maximal effect (EC50) is more than 49 µM in assay [1]; more than 52.1 µM in assay [2]; more than 36.6 µM in assay [3]; more than 36.6 µM in assay [4]; more than 36.6 µM in assay [5]; more than 7.51 µM in assay [6]. Moreover, the EC50 in assay [7] was more than 26 µM.
In the case of `CCOC(=O)/C(C)=C/c1cc(/C=C/[C@](C)(/C=C/c2ccc(OC)cc2)CCC=C(C)C)ccc1O`, the concentration giving a half-maximal response (EC50) in assay [1] is more than 49 µM; in assay [2] it was more than 52.1 µM; in assay [3], more than 36.6 µM; in assay [4] it was more than 36.6 µM; in assay [5], more than 36.6 µM; in assay [6], more than 43.5 µM. The same compound showed a half-maximal effective concentration (EC50) in assay [7] of more than 26 µM.
For the compound `C=C[C@@](C)(/C=C/c1ccc(O)c(/C=C/c2ccc(Cl)cc2)c1)CCC=C(C)C`, the EC50 is more than 49 µM in assay [1]; more than 52.1 µM in assay [2]; more than 36.6 µM in assay [3]; more than 36.6 µM in assay [4]; more than 36.6 µM in assay [5]; more than 43.5 µM in assay [6]. Besides, in assay [7], the half-maximal effective concentration (EC50) was more than 26 µM.
Take `COc1ccc(/C=C/[C@@](C)(/C=C/c2ccc(O)c(C=O)c2)CCC=C(C)C)cc1`: the EC50 in assay [1] was more than 49 µM; in assay [2] it was more than 26 µM; in assay [3], 4.55 µM; in assay [4], 2.27 µM; in assay [5], 9.8 µM; in assay [6], more than 43.5 µM. The EC50 in assay [7] was 13 µM.
With `C=C[C@@](C)(/C=C/c1ccc(O)c(/C=C/C(=O)NCc2ccc(C(F)(F)F)cc2)c1)CCC=C(C)C`, the EC50 in assay [1] was more than 49 µM; in assay [2], more than 52.1 µM; in assay [3] it was more than 36.6 µM; in assay [4] it was more than 36.6 µM; in assay [5], more than 36.6 µM; in assay [6], more than 43.5 µM. This compound also came in with an EC50 in assay [7] of more than 26 µM.
In the case of `C=C[C@@](C)(/C=C/c1ccc(O)cc1)CC/C=C(\C)C=O`, the 50% effective concentration (EC50) in assay [1] was more than 49 µM; in assay [2], more than 52.1 µM; in assay [3], more than 36.6 µM; in assay [4], more than 36.6 µM; in assay [5] it was more than 36.6 µM; in assay [6], 12.6 µM. The EC50 in assay [7] is more than 26 µM.
Take `C=C[C@@](C)(/C=C/c1ccc(O)c(/C=C/C(=O)OCc2ccccc2)c1)CCC=C(C)C`: the EC50 was more than 49 µM in assay [1]; more than 52.1 µM in assay [2]; more than 36.6 µM in assay [3]; more than 36.6 µM in assay [4]; more than 36.6 µM in assay [5]; more than 43.5 µM in assay [6]. In assay [7], this compound registered an EC50 of more than 26 µM.
Consider `C=C[C@@](C)(/C=C/c1ccc(O)cc1)CCCO`, for which the EC50 is more than 49 µM in assay [1]; more than 52.1 µM in assay [2]; more than 36.6 µM in assay [3]; more than 36.6 µM in assay [4]; more than 36.6 µM in assay [5]; more than 43.5 µM in assay [6]. The EC50 in assay [7] was more than 26 µM.
As for `COc1ccc(/C=C/[C@@](C)(/C=C/c2ccc(O)c(/C=C/C(=O)OCc3ccccc3)c2)CCC=C(C)C)cc1`, the EC50 in assay [1] was more than 49 µM; in assay [2], more than 26 µM; in assay [3], more than 36.6 µM; in assay [4], more than 36.6 µM; in assay [5], more than 36.6 µM; in assay [6], more than 43.5 µM. Further, in assay [7], the EC50 is more than 26 µM.
With `COc1ccc(/C=C/[C@@](C)(/C=C/c2ccc(O)cc2)CCC=C(C)C)cc1`, the EC50 was more than 49 µM in assay [1]; more than 52.1 µM in assay [2]; more than 36.6 µM in assay [3]; more than 36.6 µM in assay [4]; more than 36.6 µM in assay [5]; more than 43.5 µM in assay [6]. For the same compound, in assay [7], the half-maximal effective concentration (EC50) is more than 26 µM.
As to `C=C[C@@](C)(/C=C/c1ccc(O)c(/C=C/C=C/c2ccccc2)c1)CCC=C(C)C`, the EC50 in assay [1] was more than 49 µM; in assay [2] it was more than 52.1 µM; in assay [3], more than 15 µM; in assay [4], more than 36.6 µM; in assay [5], more than 36.6 µM; in assay [6], more than 43.5 µM. The EC50 in assay [7] is more than 26 µM.
For `C=C[C@@](C)(/C=C/c1ccc(O)cc1)CC/C=C(\C)CO`, the EC50 is more than 49 µM in assay [1]; more than 52.1 µM in assay [2]; more than 36.6 µM in assay [3]; more than 36.6 µM in assay [4]; more than 36.6 µM in assay [5]; more than 43.5 µM in assay [6]. The EC50 in assay [7] is more than 26 µM.
For `C=C[C@@](C)(/C=C/c1ccc(O)c(/C=C/C(N)=O)c1)CCC=C(C)C`, the EC50 in assay [1] was more than 49 µM; in assay [2] it was more than 52.1 µM; in assay [3], more than 36.6 µM; in assay [4] it was more than 36.6 µM; in assay [5], more than 36.6 µM; in assay [6], more than 43.5 µM. Further, in assay [7], the EC50 was more than 26 µM.
Consider `C=C[C@@](C)(/C=C/c1ccc(O)cc1)CC/C=C/C#N`, for which the EC50 in assay [1] is more than 49 µM; in assay [2] it was more than 52.1 µM; in assay [3] it was more than 36.6 µM; in assay [4], more than 36.6 µM; in assay [5] it was more than 36.6 µM; in assay [6] it was more than 43.5 µM. In assay [7], this compound came in with an EC50 of more than 26 µM.
On to `C=C[C@@](C)(/C=C/c1ccc(O)c(/C=C/C#N)c1)CCC=C(C)C`, for which the EC50 in assay [1] is more than 49 µM; in assay [2] it was more than 52.1 µM; in assay [3] it was more than 36.6 µM; in assay [4] it was more than 36.6 µM; in assay [5], more than 36.6 µM; in assay [6], more than 43.5 µM. This compound also came in with an EC50 in assay [7] of more than 26 µM.
In the case of `C=C[C@@](C)(/C=C/c1ccc(OS(=O)(=O)C(F)(F)F)cc1)CCC=C(C)C`, the EC50 in assay [1] was more than 49 µM; in assay [2], more than 52.1 µM; in assay [3], more than 36.6 µM; in assay [4] it was more than 36.6 µM; in assay [5], more than 36.6 µM; in assay [6], more than 43.5 µM. The same compound yielded an EC50 in assay [7] of more than 26 µM.
